Source: PubChem BioAssay AID1963970 (Molecular Pharmacology Branch, DTP, NCI, 2024)

System: 931267-113-T-J1-PDC multicell spheroid viability
Assay: Anticancer human tumor 931267-113-T-J1-PDC patient-derived colon adenocarcinoma cell line growth inhibition [PI3K]
Conditions: for IC50: curve of first compound; for viability, T/C: stronger effect = lower value
Outline: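 Spheroid viability read-out. Co-cultures contained the tumor line plus HUVEC and human MSCs. Each agent was paired with a PI3K inhibitor (inavolisib, alpelisib, duvelisib, copanlisib) across half-log dilutions starting at clinical Cmax, or at 10 microM when Cmax was unknown.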

[1] = second compound 0.0316 µM, first compound 0.0316 µM
[2] = second compound 0.0316 µM, first compound 0.1 µM
[3] = second compound 0.0316 µM, first compound 0.316 µM
[4] = second compound 0.0316 µM, first compound 1 µM
[5] = second compound 0.1 µM, first compound 0.0316 µM
[6] = second compound 0.1 µM, first compound 0.1 µM
[7] = second compound 0.1 µM, first compound 0.316 µM
[8] = second compound 0.1 µM, first compound 1 µM
[9] = second compound 0.316 µM, first compound 0.0316 µM
[10] = second compound 0.316 µM, first compound 0.1 µM
[11] = second compound 0.316 µM, first compound 0.316 µM
[12] = second compound 0.316 µM, first compound 1 µM
[13] = second compound 1 µM, first compound 0.0316 µM
[14] = second compound 1 µM, first compound 0.1 µM
[15] = second compound 1 µM, first compound 0.316 µM
[16] = second compound 1 µM, first compound 1 µM
[17] = second compound 3.16 µM, first compound 0.0316 µM
[18] = second compound 3.16 µM, first compound 0.1 µM
[19] = second compound 3.16 µM, first compound 0.316 µM
[20] = second compound 3.16 µM, first compound 1 µM
[21] = second compound 10 µM, first compound 0.0316 µM
[22] = second compound 10 µM, first compound 0.1 µM
[23] = second compound 10 µM, first compound 0.316 µM
[24] = second compound 10 µM, first compound 1 µM
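Note: viability read 7 days after compound addition.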

CC(C)NCC(C(=O)N1CCN(c2ncnc3c2C(C)CC3O)CC1)c1ccc(Cl)cc1 (centres undefined) + CC(Nc1ncnc2nc[nH]c12)c1cc2cccc(Cl)c2c(=O)n1-c1ccccc1
IC50 (second compound 0.0316 µM): > 10 µM | IC50 (second compound 0.1 µM): > 10 µM | IC50 (second compound 0.316 µM): > 10 µM | IC50 (second compound 1 µM): > 10 µM | IC50 (second compound 3.16 µM): > 10 µM | IC50 (second compound 10 µM): > 10 µM | viability, T/C [1]: 97.2% | viability, T/C [2]: 99.5% | viability, T/C [3]: 92.1% | viability, T/C [4]: 101% | viability, T/C (second compound 0.0316 µM, first compound 3.16 µM): 97.1% | viability, T/C (second compound 0.0316 µM, first compound 10 µM): 81.6% | viability, T/C [5]: 108% | viability, T/C [6]: 95.6% | viability, T/C [7]: 100% | viability, T/C [8]: 98.8% | viability, T/C (second compound 0.1 µM, first compound 3.16 µM): 97.1% | viability, T/C (second compound 0.1 µM, first compound 10 µM): 74.7% | viability, T/C [9]: 108% | viability, T/C [10]: 107% | viability, T/C [11]: 106% | viability, T/C [12]: 94.7% | viability, T/C (second compound 0.316 µM, first compound 3.16 µM): 99.6% | viability, T/C (second compound 0.316 µM, first compound 10 µM): 85% | viability, T/C [13]: 105% | viability, T/C [14]: 107% | viability, T/C [15]: 93% | viability, T/C [16]: 99.6% | viability, T/C (second compound 1 µM, first compound 3.16 µM): 99.1% | viability, T/C (second compound 1 µM, first compound 10 µM): 80.7% | viability, T/C [17]: 103% | viability, T/C [18]: 100% | viability, T/C [19]: 89.7% | viability, T/C [20]: 94.6% | viability, T/C (second compound 3.16 µM, first compound 3.16 µM): 90.9% | viability, T/C (second compound 3.16 µM, first compound 10 µM): 71.7% | viability, T/C [21]: 95.2% | viability, T/C [22]: 86% | viability, T/C [23]: 86.8% | viability, T/C [24]: 87.7% | viability, T/C (second compound 10 µM, first compound 3.16 µM): 88.7% | viability, T/C (second compound 10 µM, first compound 10 µM): 75.1%

CCN1CCN(Cc2ccc(Nc3ncc(F)c(-c4cc(F)c5nc(C)n(C(C)C)c5c4)n3)nc2)CC1 + CC(Nc1ncnc2nc[nH]c12)c1cc2cccc(Cl)c2c(=O)n1-c1ccccc1
IC50 (second compound 0.0316 µM): > 1 µM | IC50 (second compound 0.1 µM): > 1 µM | IC50 (second compound 0.316 µM): > 1 µM | IC50 (second compound 1 µM): > 1 µM | IC50 (second compound 3.16 µM): > 1 µM | IC50 (second compound 10 µM): > 1 µM | viability, T/C (second compound 0.0316 µM, first compound 0.00316 µM): 102% | viability, T/C (second compound 0.0316 µM, first compound 0.01 µM): 94.6% | viability, T/C [1]: 108% | viability, T/C [2]: 100% | viability, T/C [3]: 104% | viability, T/C [4]: 90.2% | viability, T/C (second compound 0.1 µM, first compound 0.00316 µM): 101% | viability, T/C (second compound 0.1 µM, first compound 0.01 µM): 110% | viability, T/C [5]: 104% | viability, T/C [6]: 109% | viability, T/C [7]: 100% | viability, T/C [8]: 84.2% | viability, T/C (second compound 0.316 µM, first compound 0.00316 µM): 111% | viability, T/C (second compound 0.316 µM, first compound 0.01 µM): 107% | viability, T/C [9]: 97.7% | viability, T/C [10]: 98.5% | viability, T/C [11]: 109% | viability, T/C [12]: 98.2% | viability, T/C (second compound 1 µM, first compound 0.00316 µM): 103% | viability, T/C (second compound 1 µM, first compound 0.01 µM): 101% | viability, T/C [13]: 105% | viability, T/C [14]: 102% | viability, T/C [15]: 102% | viability, T/C [16]: 86% | viability, T/C (second compound 3.16 µM, first compound 0.00316 µM): 107% | viability, T/C (second compound 3.16 µM, first compound 0.01 µM): 93.4% | viability, T/C [17]: 86.8% | viability, T/C [18]: 95.3% | viability, T/C [19]: 92.8% | viability, T/C [20]: 81.2% | viability, T/C (second compound 10 µM, first compound 0.00316 µM): 92% | viability, T/C (second compound 10 µM, first compound 0.01 µM): 86.7% | viability, T/C [21]: 89.7% | viability, T/C [22]: 80.8% | viability, T/C [23]: 81.9% | viability, T/C [24]: 67.9%
